Experimental data published in PMC6599048, “Polyhistidine facilitates direct membrane translocation of cell-penetrating peptides into cells” (Scientific Reports, 2019).
Primed or numbered codes have the meaning given here. Ends that are not written are not given here. FITC′ = fluorescein isothiocyanate label

Legend:
A549 cells [1] = assay: Time course of cellular internalization of FITC-CPPs, flow cytometry; type: cell-based, human; conditions: 80 μM, 37 °C
Method: (§1) A549 cells were washed with phosphate buffered saline (PBS) and changed to serum-free RPMI 1640 medium for protein transduction experiments. The presence of 10% serum in the medium as the solvent caused a decrease in the uptake of CPPs or their complexes/conjugates. For cellular internalization, cells were seeded at a density of about 1 × 10^5 per 35-mm petri dish and then treated with serum-free medium (as a control), 80 μM of FITC isomer I (Sigma-Aldrich, St. Louis, MO, USA), FITC-nonCPP, FITC-L6, FITC-HL6, or FITC-HR9 at 37 °C for either 1 h or various time durations. The fluorescent tracker Hoechst 33342 was used to stain the nuclei of cells in blue, according to the manufacturer’s instructions (Thermo Fisher).
Cells were seeded at a density of about 2 × 10^5 per well in a 24-well plate. Following the protein transduction, cells were washed with PBS and harvested by adding 250 μl/well of 2.9 mM ethylenediaminetetraacetic acid (EDTA, pH 6.14)[22]. […] Digital measurements were analyzed using Cell Lab Quanta SC MPL software version 1.0 (Beckman Coulter).

HeLa cells = assay: MTT cytotoxicity assay, HeLa; conditions: 6 μM HL6, 0.3 μM QDs or complexes at ratio 20, 37 °C 30 min, then 24 h in complete medium, twelve independent experiments
Method: One hundred % DMSO and serum-free medium were used to treat cells for 30 min as positive and negative controls, respectively. HeLa cells were pretreated with 4 °C for 30 min or heparinases I, II, and III for 6 h. Cells were then treated with HL6/QD complexes (prepared at a ratio of 20 at 37 °C for 1 h) in the absence or presence of various endocytic inhibitors at 37 °C for 30 min. After treatment, cells were washed with PBS and then incubated in complete culture medium at 37 °C for 24 h. Eighty μl of serum-free medium and 20 μl of 3-(4,5-dimethylthiazol-2-yl)-2,5-diphenyltetrazolium bromide (MTT, Sigma-Aldrich; 5 mg/ml in PBS) solution were added to each well. After incubation at 37 °C for 30 min, […] formazan crystals converted only by metabolically living cells were dissolved in 300 μl of DMSO. The 24-well plates were then read using a SpectraMax M2 microplate reader with SoftMax Pro 6.3 microplate analysis software (Molecular Devices, Sunnyvale, CA, USA) at 540 nm wavelength.

A549 cells [2] = assay: MTT cytotoxicity assay, A549; conditions: 6 μM HL6, 0.3 μM QDs or complexes at ratio 20, 37 °C 30 min, then 24 h in complete medium, twelve independent experiments
human A549 cells = assay: Cellular internalization of FITC-CPPs, fluorescent microscopy; type: cell-based; conditions: 80 μM, serum-free RPMI 1640, 37 °C, 1 h, Hoechst 33342 counterstain
Method: as §1
Bright-field and fluorescent images were captured using an AE31 inverted Epi-fluorescence microscope (Motic, Hong Kong, China) equipped with an IS1000 eyepiece (Tucsen, Fujian, China)[17]. Excitation filter modules of green and blue fluorescent protein (GFP, BFP) channels were set at 480/30 and 350/50 nm, respectively. Emission filter modules of GFP and BFP channels were set at 535/40 and 460/50 nm, respectively.

Substance	time by which green fluorescence was present (A549 cells [1]; serum-free medium)	green fluorescence in cells (cellular internalization) (human A549 cells)	further results
CHHHHHRRRRRRRRRHHHHHC [FITC-HR9, reference compound]	≤ 5 min	–	fraction of cells showing uptake, comparison between FITC-CPPs (A549 cells [1]; all time points): higher with FITC-HR9-treated cells than FITC-HL6 and FITC-L6 at all time points
CHHHHHRRWQWRHHHHHC [HL6]	–	–	cytotoxicity (cell viability, MTT) (HeLa cells): No cytotoxicity was detected; cytotoxicity (cell viability, MTT) (A549 cells [2]): No cytotoxicity was detected
FITC-HL6: N-terminal fluorescein isothiocyanate (FITC) labeled HL6 ({FITC′}-CHHHHHRRWQWRHHHHHC; cysteine pairing not given here)	≤ 5 min	green fluorescence	uptake relative to the FITC-L6 group (A549 cells [1]; 60 min, serum-free medium, seven independent experiments in triplicates): 46.7 times
fluorescein isothiocyanate [FITC, reference compound]	–	did not display green fluorescence	–
